Test results published in patent US8110596B2, “Triprenyl phenol compound, process for production of triprenyl phenol compound, and thrombolysis enhancer” (Tokyo University of Agriculture and Technology TLO Co., Ltd., priority 2006, dated 2012).

What was measured:
plasminogen [1] = biological target: T1, plasminogen (Homo sapiens, UniProt P00747); experiment: Measurement of activity of plasminogen fragment production (Example 5); assay type: biochemical; settings: 50 μM, 100 μM and 200 μM; 60 minutes at 37° C., SDS polyacrylamide gel electrophoresis
T1 sequence (P00747 20-810 limits assumed, species assumed): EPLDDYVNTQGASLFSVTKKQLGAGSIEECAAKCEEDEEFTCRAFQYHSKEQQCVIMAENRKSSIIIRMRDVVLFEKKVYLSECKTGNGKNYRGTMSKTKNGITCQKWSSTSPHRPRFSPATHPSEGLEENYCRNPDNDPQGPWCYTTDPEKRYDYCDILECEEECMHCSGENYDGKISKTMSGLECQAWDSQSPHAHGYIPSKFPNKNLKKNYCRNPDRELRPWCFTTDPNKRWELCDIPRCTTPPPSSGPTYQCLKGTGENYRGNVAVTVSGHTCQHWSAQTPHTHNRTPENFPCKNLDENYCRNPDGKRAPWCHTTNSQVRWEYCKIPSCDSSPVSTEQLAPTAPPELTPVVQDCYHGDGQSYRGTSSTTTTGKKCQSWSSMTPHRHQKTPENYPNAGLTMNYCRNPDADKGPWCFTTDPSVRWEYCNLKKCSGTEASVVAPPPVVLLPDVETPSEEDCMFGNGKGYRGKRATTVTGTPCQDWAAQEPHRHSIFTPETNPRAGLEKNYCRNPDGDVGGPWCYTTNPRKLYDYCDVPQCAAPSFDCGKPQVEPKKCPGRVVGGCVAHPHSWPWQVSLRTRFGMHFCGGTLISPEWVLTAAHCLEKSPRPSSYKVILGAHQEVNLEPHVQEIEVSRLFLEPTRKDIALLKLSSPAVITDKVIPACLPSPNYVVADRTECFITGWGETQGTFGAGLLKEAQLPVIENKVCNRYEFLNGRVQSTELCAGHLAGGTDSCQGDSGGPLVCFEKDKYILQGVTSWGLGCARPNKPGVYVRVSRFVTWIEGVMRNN
Procedure: (§1) The fibrinolysis enhancing activity of SMTP-0 (50 μM, 100 μM and 200 μM) obtained in Example 2 was evaluated as follows, as the activity for promoting the plasminogen activation by urokinase catalysis.
(§2) A 30 mM solution of SMTP (DMSO solution) was diluted with TBS/T (50 mM Tris-HCl, 100 mM NaCl and 0.01% Tween80, pH 7.4) to prepare a 1.5 mM solution (in 5% DMSO·TBS/T). This solution was diluted with 5% DMSO in TBS/T to prepare SMTP solutions at the concentrations mentioned above.
(1) Measurement of Activity of Plasminogen Fragment Production
An SMTP solution (60 μl) was mixed with 240 μl of a reaction liquid at a 1.25-fold concentration (not containing VLK-pNA (Val-Leu-Lys-p-nitroanilide)), and the mixture was allowed to react for 60 minutes at 37° C. Then, 75 μl of 50% trichloroacetic acid (TCA) was added to terminate the reaction, and the mixture was left to stand in ice for 60 minutes. TCA-insoluble materials were precipitated by centrifugation, and the precipitate was washed two times with acetone. The obtained precipitate was dried, and then dissolved with 11 μl of added SDS sample buffer (0.125 M Tris-Cl, pH 6.8, 4% SDS, 20% glycerol and 0.02% bromophenol blue). 10 μl of the solution was used to perform SDS polyacrylamide gel electrophoresis (10% gel).

plasminogen [2] = biological target: T1, plasminogen; experiment: Measurement of plasminogen activation by urokinase catalysis, VLK-pNA hydrolysis (Example 5); assay type: biochemical; settings: 50 μM, 100 μM and 200 μM, 37° C., 60 minutes
Procedure: as §1, §2
(2) Measurement of Plasminogen Activation
10 μl of an SMTP solution (10 μl) was mixed with 40 μl of a reaction liquid at a 1.25-fold concentration (0.0625 μM of plasminogen, 62.5 U/ml of urokinase, and 0.125 mM of VLK-pNA) in a 96-well microplate, and measurement was made by immediately monitoring the absorption of the hydrolysis of VLK-pNA at 405 nm over time with a microplate reader. The measurement was performed at 37° C. for 60 minutes at an interval of 2 minutes.

SMILES: CC(C)=CCC/C(C)=C/CC[C@]1(C)Oc2c(c(O)cc3c2CNC3=O)C[C@@H]1O [SMTP-0]
- action on the generation of plasminogen fragments having the angiogenesis inhibitory activity (plasminogen [1]): did not exhibit any action
- action of enhancing the plasminogen activation (plasminogen [2]): did not indicate any action
